Experiments:
Apis mellifera = settings: acute, duration: 48 hours, mortality
Canidae = settings: chronic; duration: 1 years; oral; Dog Other; clinical chemistry
Daphnia magna = settings: chronic/long-term; duration: 21 days; reproduction
Oncorhynchus mykiss = settings: chronic/long-term; duration: 96 days; growth
Tagia sp. = settings: acute; duration: 14 days; mortality

## CC1(C(=O)Nc2ccc(O)c(Cl)c2Cl)CCCCC1 [Fenhexamid]
Apis mellifera; dermal
  LD50: > 200 µg/piece
Apis mellifera; oral, unspecified
  LD50: > 102 µg/piece
Canidae
  NOAEL: 19.2 mg/kg-day
Colinus virginianus; acute, oral, diet, mortality
  LC50: > 804 mg/kg-day
Colinus virginianus; acute, oral, mortality
  LD50: > 2000 mg/kg-day
Colinus virginianus; reproduction developmental
  NOEC: 154 mg/kg-day
Daphnia magna
  NOEC: 1.03 mg/L
Oncorhynchus mykiss
  NOEC: 0.101 mg/L
Rattus norvegicus; acute, oral, mortality
  LD50: > 5000 mg/kg-day
Rattus norvegicus; reproduction developmental
  NOAEL: 40.2 mg/kg-day
Tagia sp.
  LC50: ≥ 1000 mg/kg
